Assay results published in patent publication US20220387405A1, “METHODS OF TREATMENT WITH N-((R)-1-(3-CHLOROPYRIDIN-2-YL)-2,2,2-TRIFLUOROETHYL)-2-((S)-2,6-DIOXOPIPERIDIN-3-YL)-1-OXOISOINDOLINE-5-CARBOXAMIDE” (CELGENE CORPORATION, priority 2021, published 2022).

How the values were obtained:
[1] = test system: leukemic progenitors from BM samples of AML patients; assay: Colony forming assay (CFU-GM) with BM samples of AML patients; type: cell-based, human; conditions: TP53 WT AML samples (14 of 18), compared to vehicle control
Protocol: Ex vivo activity of Compound 1 was evaluated in normal and leukemic progenitors from BM samples of 25 AML patients using colony forming assays. […] The effect of Compound 1 on CK1α degradation, p53 accumulation, and activation is concentration- and time-dependent.

MV4-11 AML cell line = assay: Compound washout experiment in MV4-11 (CK1α, p53 and downstream events); type: cell-based; conditions: 0.3 μM for 12 hours followed by washout
[2] = Nonclinical pharmacokinetics in monkeys; type: in vivo
Excerpt: The systemic clearance of Compound 1 was low and the volume of distribution was high in rats and monkeys. […] Notable sex differences in PK were not observed in either species. Compound 1 had good oral bioavailability (≥50%) in rats and monkeys.

CYP1A2 = molecular target: T1, CYP1A2 (Homo sapiens, UniProt P05177); assay: CYP inhibition in human liver microsomes, CYP1A2; type: in vitro ADME
T1 construct: In human liver microsomes; from tissue; host or cells: human liver microsomes

CYP2B6 [3] = molecular target: T2, CYP2B6 (Homo sapiens, UniProt P20813); assay: CYP inhibition in human liver microsomes, CYP2B6; type: in vitro ADME
T2 construct: In human liver microsomes; from tissue; host or cells: human liver microsomes

CYP2C19 = molecular target: T3, CYP2C19 (Homo sapiens, UniProt P33261); assay: CYP inhibition in human liver microsomes, CYP2C19; type: in vitro ADME
T3 construct: In human liver microsomes; from tissue; host or cells: human liver microsomes

CYP2D6 = molecular target: T4, CYP2D6 (Homo sapiens, UniProt P10635); assay: CYP inhibition in human liver microsomes, CYP2D6; type: in vitro ADME
T4 construct: In human liver microsomes; from tissue; host or cells: human liver microsomes

CYP2B6 [4] = assay: CYP induction in human hepatocyte culture, CYP2B6 mRNA; type: in vitro ADME; conditions: up to 50 μM for three consecutive days
[5] = Dose toxicity and toxicokinetics study in rats; type: in vivo; conditions: for AUC / Cmax: both sexes; for AUC / Cmax / NOAEL: rat, in vivo, po; for NOAEL: female, oral gavage, read-out: NOAEL (females)
Protocol: Additionally, control animals were dosed with a vehicle using a combination of both dosing regimens. Recovery of test article-related effects was evaluated during a 4-week recovery period.
Animals in Regimen 1 were dosed for 7 consecutive days in each 4-week cycle for 2 cycles (0.3 or 3 mg/kg on Days 1-7 and 29-35), whereas animals in Regimen 2 were dosed twice weekly for 4 weeks (0.5 or 5 mg/kg on Days 1, 4, 8, 11, 15, 18, 22 and 25). End of dosing necropsy was performed on the day after the last dose administration. A 4-week recovery period was included to assess reversibility of findings.

[6] = GLP repeat-dose toxicity and toxicokinetics study in monkeys; type: in vivo, cynomolgus monkeys; conditions: for AUC / Cmax: plasma, po
Protocol: Cardiovascular assessments (electrocardiograms [ECGs] and heart rates) were conducted in conscious cynomolgus monkeys as part of the Good Laboratory Practice (GLP)-compliant repeat dose toxicity study. In this study, Compound 1 was administered by oral gavage to Cynomolgus monkeys (5/sex/group) in Groups 1-5 at doses of 0 (0.5% (w/v) Methylcellulose, 0.25% (v/v) Tween 80 in 50 mM citrate buffer pH 3), 0.03, 0.1, 0.1 and 0.3 mg/kg, respectively, intermittently using 2 different dosing regimens. Groups 2 and 3 animals were dosed for 7 consecutive days in each 4-week cycle for 2 cycles (Regimen 1: on Days 1-7 and 29-35), whereas Groups 4 and 5 animals were dosed twice weekly for 4 weeks (Regimen 2: on Days 1, 4, 8, 11, 15, 18, 22 and 25). A combination of both dosing regimens (Days 1-7, 8, 11, 15, 18, 22, 25, and 29-35) was used for administration of the vehicle to the control animals. A 9-lead ECG recording was made on all animal during pretest and on all animals in Groups 4 and 5 on Day 22 (1 hour postdose±15 minutes) and on all animals in Groups 1, 2 and 3 during Week 5 (1 hour postdose±15 minutes) using standard limb leads I, II and III; augmented leads aVR, aVL and aVF as well as chest leads MV1, MV2 and MV3. All ECGs were performed while the unanesthetized animal was sitting in an up-right position in a restraint chair. Qualitative (visual inspection) and quantitative assessments including heart rates and PR, QRS, RR, QT, and QTc intervals were performed. QTc was calculated using Bazett's formula.
In a repeat-dose toxicity study in monkeys, Compound 1 was administered by oral gavage intermittently using 2 different dosing regimens. Animals in Regimen 1 were dosed for 7 consecutive days in each 4-week cycle for 2 cycles (0.03 or 0.1 mg/kg on Days 1-7 and 29-35), whereas animals in Regimen 2 were dosed twice weekly for 4 weeks (0.1 or 0.3 mg/kg on Days 1, 4, 8, 11, 15, 18, 22 and 25).
End of dosing necropsy was performed on the day after the last dose administration. A 4-week recovery period was included to assess reversibility of findings. Administration of Compound 1 was associated with mortality at 0.1 mg/kg using Regimen 1 during the recovery phase. Three animals (2 males and 1 female) were euthanized for welfare reasons and one female was found dead due to reduction (marked to severe) in BM cellularity resulting in severe leukopenia and likely bacteremia, as well as in severe thrombocytopenia with disseminated petechial hemorrhage.

[7] = 0.3 mg/kg, Regimen 1, sexes combined
[8] = 0.5 mg/kg, Regimen 2, sexes combined
[9] = Regimen 2 (twice weekly for 4 weeks)
[10] = both sexes, cynomolgus monkey, 0.03 mg/kg, Regimen 1, sexes combined
[11] = both sexes, cynomolgus monkey, 0.1 mg/kg, Regimen 2, sexes combined

T2 sequence (P20813 whole entry): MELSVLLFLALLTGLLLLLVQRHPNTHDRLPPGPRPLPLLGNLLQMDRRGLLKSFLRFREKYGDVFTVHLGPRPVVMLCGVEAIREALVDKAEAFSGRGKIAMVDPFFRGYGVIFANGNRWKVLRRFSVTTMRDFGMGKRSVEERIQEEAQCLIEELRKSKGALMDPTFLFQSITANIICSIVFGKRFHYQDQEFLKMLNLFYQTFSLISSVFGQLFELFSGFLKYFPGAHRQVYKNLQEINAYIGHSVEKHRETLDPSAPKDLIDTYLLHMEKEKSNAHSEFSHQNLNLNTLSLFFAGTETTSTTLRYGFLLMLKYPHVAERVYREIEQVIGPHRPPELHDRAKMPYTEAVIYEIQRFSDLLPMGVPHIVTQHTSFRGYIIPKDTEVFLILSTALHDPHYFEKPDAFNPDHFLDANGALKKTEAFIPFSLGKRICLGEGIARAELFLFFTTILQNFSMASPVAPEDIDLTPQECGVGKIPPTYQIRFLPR
T1 sequence (P05177 whole entry): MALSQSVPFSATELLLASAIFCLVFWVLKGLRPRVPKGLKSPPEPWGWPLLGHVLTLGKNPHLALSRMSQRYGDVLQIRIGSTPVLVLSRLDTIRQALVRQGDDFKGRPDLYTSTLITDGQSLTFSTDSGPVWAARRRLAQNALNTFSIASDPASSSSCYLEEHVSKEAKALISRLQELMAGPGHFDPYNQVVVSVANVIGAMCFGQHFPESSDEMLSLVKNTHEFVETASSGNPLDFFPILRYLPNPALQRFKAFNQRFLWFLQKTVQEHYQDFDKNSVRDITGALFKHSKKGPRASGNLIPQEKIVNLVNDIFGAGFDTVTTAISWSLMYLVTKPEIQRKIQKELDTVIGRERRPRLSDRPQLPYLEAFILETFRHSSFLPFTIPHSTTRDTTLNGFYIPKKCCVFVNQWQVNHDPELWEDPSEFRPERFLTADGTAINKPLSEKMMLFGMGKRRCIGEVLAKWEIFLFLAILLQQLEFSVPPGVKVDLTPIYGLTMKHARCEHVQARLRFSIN
T4 sequence (P10635 whole entry): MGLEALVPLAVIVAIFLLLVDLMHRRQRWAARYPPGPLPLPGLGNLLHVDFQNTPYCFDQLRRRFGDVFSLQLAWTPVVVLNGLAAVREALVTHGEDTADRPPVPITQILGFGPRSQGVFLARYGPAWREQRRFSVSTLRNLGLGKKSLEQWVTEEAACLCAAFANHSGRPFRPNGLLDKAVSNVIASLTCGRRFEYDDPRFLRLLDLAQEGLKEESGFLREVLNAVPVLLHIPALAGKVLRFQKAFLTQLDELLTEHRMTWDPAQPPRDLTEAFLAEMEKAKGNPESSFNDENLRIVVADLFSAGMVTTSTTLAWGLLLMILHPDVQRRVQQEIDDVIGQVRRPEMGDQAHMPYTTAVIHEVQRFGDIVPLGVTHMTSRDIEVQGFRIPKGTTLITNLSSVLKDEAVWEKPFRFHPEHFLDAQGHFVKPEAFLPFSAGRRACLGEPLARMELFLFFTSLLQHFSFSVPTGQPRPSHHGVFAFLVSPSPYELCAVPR
T3 sequence (P33261 whole entry): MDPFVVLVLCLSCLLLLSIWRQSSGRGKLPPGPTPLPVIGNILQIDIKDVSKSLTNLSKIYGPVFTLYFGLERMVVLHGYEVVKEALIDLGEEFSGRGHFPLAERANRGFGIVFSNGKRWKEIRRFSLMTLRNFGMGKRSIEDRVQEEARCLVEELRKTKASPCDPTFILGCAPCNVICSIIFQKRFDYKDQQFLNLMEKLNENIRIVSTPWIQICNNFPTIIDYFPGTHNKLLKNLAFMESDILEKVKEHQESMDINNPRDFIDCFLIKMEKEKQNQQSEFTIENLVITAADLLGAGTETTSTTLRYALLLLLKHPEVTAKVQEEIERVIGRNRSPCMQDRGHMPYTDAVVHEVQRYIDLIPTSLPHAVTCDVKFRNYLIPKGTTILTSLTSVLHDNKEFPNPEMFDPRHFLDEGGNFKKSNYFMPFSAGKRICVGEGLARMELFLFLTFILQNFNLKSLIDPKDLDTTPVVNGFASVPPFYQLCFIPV

With `O=C1CC[C@H](N2Cc3cc(C(=O)N[C@H](c4ncccc4Cl)C(F)(F)F)ccc3C2=O)C(=O)N1` [Compound 1, N-((R)-1-(3-chloropyridin-2-yl)-2,2,2-trifluoroethyl)-2-((S)-2,6-dioxopiperidin-3-yl)-1-oxoisoindoline-5-carboxamide] the “samples with inhibited formation of CFU-GM colonies” value [1] was 77.8%, the “persistence of p53 downstream events (p21, phosphor-Ser139-Histone H2A.X, caspase 3 cleavage) after washout” value (MV4-11 AML cell line) was “at least 10 hours” and the “accumulation following multiple doses” value [2] was “No accumulation”. For the same molecule, the systemic clearance [2] was “low”, the volume of distribution [2] was “high” and the bioavailability ([2]; monkey, in vivo, po) was at least 50%. The half-life ([2]; monkey, in vivo, read-out: terminal half-life) was 2.3 to 4.4 h, the time-dependent inhibition (CYP1A2; CYP1A2, 30-minute preincubation with NADPH) was “not a time-dependent inhibition” and the inhibitory effect (CYP1A2; human liver microsomes, CYP1A2) was at most 25%. The time-dependent inhibition (CYP2B6 [3]; CYP2B6, 30-minute preincubation with NADPH) was “not a time-dependent inhibition”, the inhibitory effect (CYP2B6 [3]; human liver microsomes, CYP2B6) was at most 25% and the time-dependent inhibition (CYP2C19; CYP2C19, 30-minute preincubation with NADPH) was “not a time-dependent inhibition”. For the same molecule, the inhibitory effect (CYP2C19; human liver microsomes, CYP2C19) was at most 25%, the time-dependent inhibition (CYP2D6; CYP2D6, 30-minute preincubation with NADPH) was “not a time-dependent inhibition” and the inhibitory effect (CYP2D6; human liver microsomes, CYP2D6) was at most 25%. The “mRNA expression of CYP2B6” value (CYP2B6 [4]) was “no dose-dependent increases”, the “severely toxic dose in 10% of the animals (STD 10)” value ([5]; Regimen 1) was 0.3 mg/kg and the “severely toxic dose in 10% of the animals (STD 10)” value ([5]; Regimen 2) was 0.5 mg/kg. For the same molecule, the “NOAEL (males)” value ([5]; both regimens) was “not identified”, the AUC [5, 7] was 761 ng·h/mL and the Cmax [5, 7] was 225 ng/mL. For the same molecule, the AUC [5, 8] was 1200 ng·h/mL, the Cmax [5, 8] was 263 ng/mL and the NOAEL ([5]; Regimen 1 (Days 1-7 and 29-35)) was 0.3 mg/kg. For the same molecule, the NOAEL [5, 9] was 0.5 mg/kg, the lethality ([6]; 0.1 mg/kg, Regimen 1, during the recovery phase) was “mortality” and the “sex-combined mean maximum observed plasma concentration” value ([6]; 0.1 mg/kg/day, Regimen 1, Day 34) was 31.9 ng/mL. The “fold higher than anticipated human Cmax of 0.4 ng/mL” value ([6]; 0.1 mg/kg/day, Regimen 1, Day 34 vs human starting dose 0.1 mg/day) was “approximately 80 fold”, the “sex-combined mean maximum observed plasma concentration” value ([6]; 0.3 mg/kg/day, Regimen 2, Day 15) was 62.6 ng/mL and the “fold higher than anticipated human Cmax of 0.4 ng/mL” value ([6]; 0.3 mg/kg/day, Regimen 2, Day 15 vs human starting dose 0.1 mg/day) was about 157 fold. For the same molecule, the “highest non-STD (HNSTD)” value ([6]; Regimen 1) was 0.03 mg/kg, the “highest non-STD (HNSTD)” value ([6]; Regimen 2) was 0.1 mg/kg and the NOAEL [6, 9] was “not identified”. The NOAEL ([6]; both sexes, cynomolgus monkey, in vivo, Regimen 1 (Days 1-7 and 29-35), oral gavage, read-out: NOAEL) was 0.03 mg/kg, the AUC [6, 10] was 51.4 ng·h/mL and the Cmax [6, 10] was 9.95 ng/mL. It also gave an AUC [6, 11] of 173 ng·h/mL and a Cmax [6, 11] of 21.5 ng/mL.
